According to US8445677B2, “Substituted pyrimidyl guanidine derivatives having anticancer activity” (University of Southern California, priority 2008, dated 2013):

System: HCT116 p53+/+
Test: MTT cytotoxicity assay (Example 2)
Assay type: cell-based
Details: Homo sapiens, HCT-116, 72 h, MTT, 72 h; read-out: IC50 Hct116 p53+/+
Excerpt: (§1) Human breast cancer cell lines MDA-MB-435 and SkBr-3 were purchased from the American Type Culture Collection (Manassas, Va.). The HCT116 P53+/+ and HCT116 P53−/− cell lines were kindly provided by Dr. Bert Vogelstein (Johns Hopkins Medical Institutions, Baltimore, Md.). The HEY human ovarian carcinoma cell line was kindly provided by Dr. Louis Dubeau (University of Southern California Norris Cancer Center). Cells were maintained as monolayer cultures in media supplemented with 10% fetal bovine serum (Gemini-Bioproducts, Woodland, Calif.) and 2 mmo/lL-glutamine at 37° C. in a humidified atmosphere of 5% C02. To remove the adherent cells from the flask for passaging and counting, cells were washed with PBS without calcium or magnesium, incubated with a small volume of 0.25% trypsin-EDTA solution (Sigma-Aldrich, St. Louis, Mo.) for 5-10 min, and washed with culture medium and centrifuged. All experiments were performed using cells in exponential growth stage. Cells were routinely checked for mycoplasma contamination using a PCR-based assay (Stratagene, Cambridge, UK).
(§2) Stock solutions (10 mM) of all compounds were prepared in DMSO and stored at −20° C. Further dilutions were made fresh in cell-culture media just prior to cell treatment.
(§3) Cytotoxicity was assessed by a 3-(4,5-dimethylthiazol-2-yl)-2,5-diphenyltetrazolium bromide (MTT) assay as previously described.^23 Cells were seeded in 96-well plates and allowed to attach overnight. Cells were subsequently treated with continuous exposure to the corresponding drug for 72 h. An MTT solution (at a final concentration of 0.5 mg/ml) was added to each well, and cells were incubated for 4 h at 37° C. After removal of the medium, DMSO was added and the absorbance was read at 570 nm. All assays were performed in triplicate. The IC50 was determined for each drug from a plot of log (drug concentration) versus percentage of cells killed.

SMILES | IC50
Oc1ccc(CN2CCN(Cc3ccccc3)CC2)c2cccnc12 [15-SMD58-8] | 1700 ± 700 nM
CCOc1ccc(NCc2ccc(O)c3ncccc23)cc1 [16-SMD58-11] | 2300 ± 100 nM
Cc1cccc(NCc2ccc(O)c3ncccc23)c1 [17-SMD58-12] | 1800 ± 400 nM
Oc1ccc(CNc2ccc(C(F)(F)F)cc2)c2cccnc12 [18-SMD58-13] | 1600 ± 100 nM
COc1cccc(NCc2ccc(O)c3ncccc23)c1 [19-SMD58-14] | 1300 ± 900 nM
Oc1ccc(CN2CCCCC2)c2cccnc12 [20-SMD58-18] | 6800 ± 1300 nM
Oc1ccc(CN2CCN(c3ccccn3)CC2)c2cccnc12 [21-SMD58-19] | 2600 ± 700 nM
CCN1CCN(Cc2ccc(O)c3ncccc23)CC1 [22-SMD58-20] | 2100 nM
Cc1cccnc1NCc1ccc(O)c2ncccc12 [23-SMD58-22] | 1400 ± 400 nM
Cc1cccc(NCc2ccc(O)c3ncccc23)n1 [24-SMD58-23] | 2800 ± 100 nM
CCC(=O)NC(c1ccc(OC)cc1)c1cc([N+](=O)[O-])c2cccnc2c1O (stereo not drawn) [25-SMD58-26] | 6800 ± 200 nM
CCC(=O)NC(c1cccs1)c1cc([N+](=O)[O-])c2cccnc2c1O (stereo not drawn) [26-SMD58-27] | 5000 ± 400 nM

Same assay, conditions: Homo sapiens, HCT-116, p53+/+ cell line; read-out: IC50

SMILES | IC50
CCOC(=O)C1CCN(Cc2ccc(O)c3ncccc23)CC1 [10-SMD58] | < 1000 nM

Same assay, conditions: MTT, 72 h; read-out: IC50 Hct116 p53+/+

SMILES | IC50
Cc1cc(C)nc(NC(=N)Nc2cc(Oc3ccccc3)ccc2Cl)n1 [1-SMD6] | 1000 ± 700 nM

System: MDA-MB-435
Test: MTT cytotoxicity assay (Example 2)
Assay type: cell-based
Details: Homo sapiens, MDA-MB-435, 72 h
Excerpt: as §1, §2, §3

SMILES | IC50
Cc1cc(C)nc(NC(=N)Nc2cc(Oc3ccccc3)ccc2Cl)n1 [1-SMD6] | 8000 ± 500 nM
CCOC(=O)C1CCN(Cc2ccc(O)c3ncccc23)CC1 [10-SMD58] | 2400 ± 1500 nM
Oc1ccc(CN2CCN(Cc3ccccc3)CC2)c2cccnc12 [15-SMD58-8] | 5400 ± 700 nM
CCOc1ccc(NCc2ccc(O)c3ncccc23)cc1 [16-SMD58-11] | 4900 ± 1100 nM
Cc1cccc(NCc2ccc(O)c3ncccc23)c1 [17-SMD58-12] | 6600 nM
Oc1ccc(CNc2ccc(C(F)(F)F)cc2)c2cccnc12 [18-SMD58-13] | 5200 ± 400 nM
COc1cccc(NCc2ccc(O)c3ncccc23)c1 [19-SMD58-14] | 5000 ± 900 nM
Oc1ccc(CN2CCCCC2)c2cccnc12 [20-SMD58-18] | 8900 nM
Oc1ccc(CN2CCN(c3ccccn3)CC2)c2cccnc12 [21-SMD58-19] | 2700 nM
CCN1CCN(Cc2ccc(O)c3ncccc23)CC1 [22-SMD58-20] | 7200 ± 400 nM
Cc1cccnc1NCc1ccc(O)c2ncccc12 [23-SMD58-22] | 3100 ± 600 nM
Cc1cccc(NCc2ccc(O)c3ncccc23)n1 [24-SMD58-23] | 2300 nM
CCC(=O)NC(c1ccc(OC)cc1)c1cc([N+](=O)[O-])c2cccnc2c1O (stereo not drawn) [25-SMD58-26] | 7500 nM
CCC(=O)NC(c1cccs1)c1cc([N+](=O)[O-])c2cccnc2c1O (stereo not drawn) [26-SMD58-27] | 5600 nM

System: HCT116 p53−/−
Test: MTT cytotoxicity assay (Example 2)
Assay type: cell-based
Details: Homo sapiens, HCT-116, 72 h
Excerpt: as §1, §2, §3

SMILES | IC50
Cc1cc(C)nc(NC(=N)Nc2cc(Oc3ccccc3)ccc2Cl)n1 [1-SMD6] | 1500 ± 100 nM
CCOC(=O)C1CCN(Cc2ccc(O)c3ncccc23)CC1 [10-SMD58] | 300 nM
Oc1ccc(CN2CCN(Cc3ccccc3)CC2)c2cccnc12 [15-SMD58-8] | 2500 ± 1600 nM
CCOc1ccc(NCc2ccc(O)c3ncccc23)cc1 [16-SMD58-11] | 1200 ± 200 nM
Cc1cccc(NCc2ccc(O)c3ncccc23)c1 [17-SMD58-12] | 1900 ± 400 nM
Oc1ccc(CNc2ccc(C(F)(F)F)cc2)c2cccnc12 [18-SMD58-13] | 2000 ± 100 nM
COc1cccc(NCc2ccc(O)c3ncccc23)c1 [19-SMD58-14] | 2100 ± 100 nM
Oc1ccc(CN2CCCCC2)c2cccnc12 [20-SMD58-18] | 6500 ± 800 nM
Oc1ccc(CN2CCN(c3ccccn3)CC2)c2cccnc12 [21-SMD58-19] | 2200 ± 100 nM
CCN1CCN(Cc2ccc(O)c3ncccc23)CC1 [22-SMD58-20] | 2100 ± 1200 nM
Cc1cccnc1NCc1ccc(O)c2ncccc12 [23-SMD58-22] | 1500 ± 100 nM
Cc1cccc(NCc2ccc(O)c3ncccc23)n1 [24-SMD58-23] | 1600 ± 300 nM
CCC(=O)NC(c1ccc(OC)cc1)c1cc([N+](=O)[O-])c2cccnc2c1O (stereo not drawn) [25-SMD58-26] | 7100 ± 1100 nM
CCC(=O)NC(c1cccs1)c1cc([N+](=O)[O-])c2cccnc2c1O (stereo not drawn) [26-SMD58-27] | 4200 ± 1200 nM

System: HEY
Test: MTT cytotoxicity assay (Example 2)
Assay type: cell-based, human
Details: 72 h
Excerpt: as §1, §2, §3

SMILES | IC50
Cc1cc(C)nc(NC(=N)Nc2cc(Oc3ccccc3)ccc2Cl)n1 [1-SMD6] | 3500 ± 1600 nM
CCOC(=O)C1CCN(Cc2ccc(O)c3ncccc23)CC1 [10-SMD58] | 500 nM

Same assay, conditions: Homo sapiens, 72 h

SMILES | IC50
Oc1ccc(CN2CCN(Cc3ccccc3)CC2)c2cccnc12 [15-SMD58-8] | 1800 ± 700 nM
CCOc1ccc(NCc2ccc(O)c3ncccc23)cc1 [16-SMD58-11] | 1700 ± 100 nM
Cc1cccc(NCc2ccc(O)c3ncccc23)c1 [17-SMD58-12] | 1500 ± 800 nM
Oc1ccc(CNc2ccc(C(F)(F)F)cc2)c2cccnc12 [18-SMD58-13] | 1200 ± 100 nM
COc1cccc(NCc2ccc(O)c3ncccc23)c1 [19-SMD58-14] | 1900 nM
Oc1ccc(CN2CCCCC2)c2cccnc12 [20-SMD58-18] | 5000 ± 1600 nM
Oc1ccc(CN2CCN(c3ccccn3)CC2)c2cccnc12 [21-SMD58-19] | 2800 ± 600 nM
CCN1CCN(Cc2ccc(O)c3ncccc23)CC1 [22-SMD58-20] | 1400 ± 200 nM
Cc1cccnc1NCc1ccc(O)c2ncccc12 [23-SMD58-22] | 2800 nM
Cc1cccc(NCc2ccc(O)c3ncccc23)n1 [24-SMD58-23] | 2300 ± 300 nM
CCC(=O)NC(c1ccc(OC)cc1)c1cc([N+](=O)[O-])c2cccnc2c1O (stereo not drawn) [25-SMD58-26] | 3200 nM
CCC(=O)NC(c1cccs1)c1cc([N+](=O)[O-])c2cccnc2c1O (stereo not drawn) [26-SMD58-27] | 3200 ± 800 nM

System: SkBr-3
Test: MTT cytotoxicity assay (Example 2)
Assay type: cell-based, human
Details: 72 h
Excerpt: as §1, §2, §3

SMILES | IC50
Cc1cc(C)nc(NC(=N)Nc2cc(Oc3ccccc3)ccc2Cl)n1 [1-SMD6] | 5000 ± 1000 nM
CCOC(=O)C1CCN(Cc2ccc(O)c3ncccc23)CC1 [10-SMD58] | 3500 ± 500 nM

Same assay, conditions: Homo sapiens, SK-BR-3, 72 h

SMILES | IC50
Cc1cc(C)nc(NC(=N)Nc2cc(Oc3ccccc3)ccc2Cl)n1 [1-SMD6] | < 10000 nM
Oc1ccc(CN2CCN(Cc3ccccc3)CC2)c2cccnc12 [15-SMD58-8] | 1700 ± 700 nM
CCOc1ccc(NCc2ccc(O)c3ncccc23)cc1 [16-SMD58-11] | 3000 ± 1300 nM
Cc1cccc(NCc2ccc(O)c3ncccc23)c1 [17-SMD58-12] | 4000 ± 500 nM
Oc1ccc(CNc2ccc(C(F)(F)F)cc2)c2cccnc12 [18-SMD58-13] | 2800 ± 500 nM
COc1cccc(NCc2ccc(O)c3ncccc23)c1 [19-SMD58-14] | 2900 ± 300 nM
Oc1ccc(CN2CCCCC2)c2cccnc12 [20-SMD58-18] | 8600 ± 1400 nM
Oc1ccc(CN2CCN(c3ccccn3)CC2)c2cccnc12 [21-SMD58-19] | 3000 ± 1000 nM
CCN1CCN(Cc2ccc(O)c3ncccc23)CC1 [22-SMD58-20] | 4100 ± 100 nM
Cc1cccnc1NCc1ccc(O)c2ncccc12 [23-SMD58-22] | 3300 ± 700 nM
Cc1cccc(NCc2ccc(O)c3ncccc23)n1 [24-SMD58-23] | 3600 ± 500 nM
CCC(=O)NC(c1ccc(OC)cc1)c1cc([N+](=O)[O-])c2cccnc2c1O (stereo not drawn) [25-SMD58-26] | > 10000 nM
CCC(=O)NC(c1cccs1)c1cc([N+](=O)[O-])c2cccnc2c1O (stereo not drawn) [26-SMD58-27] | 4600 ± 800 nM

System: panel of cancer cell lines
Test: MTT cytotoxicity, panel of cancer cell lines (Example 2)
Assay type: cell-based
Details: five cancer cell lines
Excerpt: as §1, §2, §3

SMILES | IC50
CCOC(=O)C1CCN(Cc2ccc(O)c3ncccc23)CC1 [10-SMD58] | < 3500 nM
